According to patent publication US7915402B2, “Antioxidant inflammation modulators: oleanolic acid derivatives with saturation in the C-ring” (Reata Pharmaceuticals, Inc., priority 2008, dated 2011):
Like-named read-outs stand apart in the source and are kept apart here.

Assays:
mice = conditions: sesame oil, N=4
HO-1 = experiment: Nrf2 target gene induction, HO-1 mRNA (qPCR); type: cell-based, human; conditions: MDA-MB-435 cells
Experimental: (§1) FIGS. 17-20. Induction of HO-1. MDA-MB-435 human melanoma cells were treated with vehicle (DMSO) or the indicated compounds and concentrations for 16 hours. HO-1 mRNA levels were quantified using qPCR and were normalized relative to a DMSO-treated sample run in parallel. Values are averages of duplicate wells.
as §1, with “FIG. 21.” for “FIGS. 17-20.”, “HO-1, TrxR1 and γ-GCS.” for “HO-1.”, “HO-1, thioredoxin reductase-1 (TrxR1), and γ-glutamylcysteine synthetase (γ-GCS)” for “HO-1”
as §1, with “Nrf2 target gene induction.” for “FIGS. 17-20. Induction of HO-1.”, “HO-1, thioredoxin reductase-1 (TrxR1), γ-glutamylcysteine synthetase (γ-GCS), and ferritin heavy chain” for “HO-1”, “wells. Primer sequences are as follows.” for “wells.”

RAW264.7 macrophages = experiment: Cell viability, WST-1 reagent; type: cell-based, mouse; conditions: Mus musculus, RAW264.7 (20 ng/ml IFNγ)
Experimental: (§2) FIGS. 1-8 and 32-34. Inhibition of NO Production. RAW264.7 macrophages were pre-treated with DMSO or drugs at various concentrations (nM) for 2 hours, then treated with 20 ng/ml IFNγ for 24 hours. NO concentration in media was determined using a Griess reagent system; cell viability was determined using WST-1 reagent.
(§3) Nitric Oxide production and cell viability. RAW264.7 macrophages were pre-treated with DMSO or drugs for 2 hours, then treated with recombinant mouse IFNγ (Sigma) for 24 hours. NO concentration in media was determined using the Griess reagent system (Promega). Cell viability was determined using WST-1 reagent (Roche).

Ferritin heavy chain = experiment: Induction of ferritin heavy chain mRNA (qPCR); type: cell-based, human; conditions: MDA-MB-435 cells, 16 hours
Experimental: as §1, with “FIG. 24.” for “FIGS. 17-20.”, “Ferritin Heavy Chain.” for “HO-1.”, “Ferritin heavy chain” for “HO-1”
as §1, with “Nrf2 target gene induction.” for “FIGS. 17-20. Induction of HO-1.”, “HO-1, thioredoxin reductase-1 (TrxR1), γ-glutamylcysteine synthetase (γ-GCS), and ferritin heavy chain” for “HO-1”, “wells. Primer sequences are as follows.” for “wells.”

Sprague-Dawley rats = conditions: Sprague-Dawley rats, 1,500 mg/m^2/day for 14 days
[1] = test system: thioredoxin reductase-1 (TrxR1); experiment: Nrf2 target gene induction, TrxR1 mRNA (qPCR); type: cell-based, human; conditions: MDA-MB-435 cells
Experimental: as §1, with “FIG. 21.” for “FIGS. 17-20.”, “HO-1, TrxR1 and γ-GCS.” for “HO-1.”, “HO-1, thioredoxin reductase-1 (TrxR1), and γ-glutamylcysteine synthetase (γ-GCS)” for “HO-1”
as §1, with “FIG. 22.” for “FIGS. 17-20.”, “TrxR1.” for “HO-1.”, “Thioredoxin reductase-1 (TrxR1)” for “HO-1”, “wells. Compounds 401, 402-19 and 402-53 are comparison compounds (see Example 1).” for “wells.”
as §1, with “Nrf2 target gene induction.” for “FIGS. 17-20. Induction of HO-1.”, “HO-1, thioredoxin reductase-1 (TrxR1), γ-glutamylcysteine synthetase (γ-GCS), and ferritin heavy chain” for “HO-1”, “wells. Primer sequences are as follows.” for “wells.”

[2] = test system: IFNγ-induced NO production in RAW264.7 macrophages; experiment: Suppression of IFNγ-induced NO production (Griess reagent); type: cell-based, mouse; conditions: Mus musculus; RAW264.7, 20 ng/ml IFNγ 24 h, 2 h pre-treatment
Experimental: as §2, §3

iNOS = iNOS suppression, Western blot; type: cell-based, mouse; conditions: RAW264.7 (20 ng/ml IFNγ)
NQO1 = experiment: Nrf2 target gene induction, NQO1; type: cell-based, human; conditions: MDA-MB-435 cells, 250 nM; fold induction above DMSO control
[3] = test system: γ-glutamylcysteine synthetase (γ-GCS); experiment: Nrf2 target gene induction, γ-GCS mRNA (qPCR); type: cell-based, human; conditions: MDA-MB-435 cells
Experimental: as §1, with “FIG. 21.” for “FIGS. 17-20.”, “HO-1, TrxR1 and γ-GCS.” for “HO-1.”, “HO-1, thioredoxin reductase-1 (TrxR1), and γ-glutamylcysteine synthetase (γ-GCS)” for “HO-1”
as §1, with “FIG. 23.” for “FIGS. 17-20.”, “γ-GCS.” for “HO-1.”, “γ-glutamylcysteine synthetase (γ-GCS)” for “HO-1”
as §1, with “Nrf2 target gene induction.” for “FIGS. 17-20. Induction of HO-1.”, “HO-1, thioredoxin reductase-1 (TrxR1), γ-glutamylcysteine synthetase (γ-GCS), and ferritin heavy chain” for “HO-1”, “wells. Primer sequences are as follows.” for “wells.”

[4] = 250 nM, fold induction above DMSO control
[5] = 400 nM, percent of induction observed for 402

COC(=O)[C@]12CCC(C)(C)C[C@H]1[C@H]1C(=O)CC3[C@@]4(C)C=C(C#N)C(=O)C(C)(C)[C@@H]4CC[C@@]3(C)[C@]1(C)CC2 (stereo partly drawn) [Compound 63101, (4aS,6aR,6bR,8aR,12aR,14aR,14bS)-methyl 11-cyano-2,2,6a,6b,9,9,12a-heptamethyl-10,14-dioxo-1,2,3,4,4a,5,6,6a,6b,7,8,8a,9,10,12a,12b,13,14,14a,14b-icosahydropicene-4a-carboxylate]
Number of Deaths (mice; oral gavage QDx14, 10 mg/kg): 0 | Number of Deaths (mice; oral gavage QDx14, 50 mg/kg): 0 | Number of Deaths (mice; oral gavage QDx14, 100 mg/kg): 0 | Number of Deaths (mice; oral gavage QDx14, 250 mg/kg): 0 | HO-1 induction (HO-1; [4]): 3 fold | HO-1 induction (HO-1; [5]): 4% | IC50 (RAW264.7 macrophages): 200 nM | Ferritin heavy chain mRNA induction: concentration needed compared with unsaturated counterpart (402, 404) (Ferritin heavy chain): higher concentrations | highest dose without significant toxicity relative to the MTD of RTA 402 in this species (Sprague-Dawley rats): 50 fold | TrxR1 induction [1, 5]: 47% | TrxR1 mRNA induction: concentration needed compared with unsaturated counterpart (402, 404) ([1]; 16 hours): higher concentrations | IC50 [2]: ~12 nM | iNOS suppr. WB (iNOS): >90% | NQO1 induction (NQO1): 2 fold | γ-GCS induction [3, 4]: 5 fold | γ-GCS induction [3, 5]: 53% | γ-GCS mRNA induction: concentration needed compared with unsaturated counterpart (402, 404) ([3]; 16 hours): higher concentrations
